Each structure is given as a SMILES string.

The results in this text go back to US20170333391A1, “METHOD FOR DELAYING THE ONSET OF PULMONARY FIBROSIS OR TREATING PULMONARY FIBROSIS” (EVERFRONT BIOTECH INC., priority 2016, published 2017).

In one experiment the test system is type I collagen. The experiment is described as follows: Type I collagen expression in TGF-β1-induced NHLF, western blotting (2-2). It is filed as cell-based, human. Particulars: TGF-β1-only control group = 1. The procedure: Normal Human lung fibroblasts (NHLF) were seeded into 6 cm culture dishes at a density of 2×10^5 cells/dish, comprising a control group and six experimental groups (7 dishes in total). The cells were cultured until the next day, and then the mediums were removed. Each group was respectively treated under the following conditions to conduct follow-up experiments: • (1) Positive control group: cells were cultured in a FGM-2 medium containing 1% serum and TGF-β1 (5 ng/ml) for 36 hours; • (2) Group I: cells were firstly cultured in a FGM-2 medium containing 1% serum and TGF-β1 (5 ng/ml) for 12 hours, and then compound (1) was added into the medium to provide a final concentration of 15 μg/ml; thereafter, the cells were cultured for another 24 hours; • (3) Group II: cells were firstly cultured in a FGM-2 medium containing 1% serum and TGF-β1 (5 ng/ml) for 12 hours, and then compound (1) was added into the medium to provide a final concentration of 25 μg/ml; thereafter, the cells were cultured for another 24 hours; • (4) Group III: cells were firstly cultured in a FGM-2 medium containing 1% serum and TGF-β1 (5 ng/ml) for 12 hours, and then compound (1) was added into the medium to provide a final concentration of 35 μg/ml; thereafter, the cells were cultured for another 24 hours; • (5) Group IV: cells were firstly cultured in a FGM-2 medium containing 1% serum and TGF-β1 (5 ng/ml) for 12 hours, and then the Pirfenidone was added into the medium to provide a final concentration of 100 μg/ml; thereafter, the cells were cultured for another 24 hours; • (6) Group V: cells were firstly cultured in a FGM-2 medium containing 1% serum and TGF-β1 (5 ng/ml) for 12 hours, and then the Pirfenidone was added into the medium to provide a final concentration of 250 μg/ml; thereafter, the cells were cultured for another 24 hours; and • (7) Group VI: cells were firstly cultured in a FGM-2 medium containing 1% serum and TGF-β1 (5 ng/ml) for 12 hours, and then the Pirfenidone was added into the medium to provide a final concentration of 500 μg/ml; thereafter, the cells were cultured for another 24 hours.
Thereafter, the proteins in the cells of each group were extracted, and the expressions of type I collagen, BMP-7 protein and TGF-β protein in the NHLF cells of each group were measured with western blotting. The results of the control group served as the basis for calculating the relative expression levels of the other groups.

Experiment [1] relates to C57B/L6 mice injected with Bleomycin sulfate (inducer of pulmonary fibrosis). The experiment can be described thus: Pulmonary fibrosis score (Ashcroft, 0 to 8) in Bleomycin sulfate mice. It is filed as in vivo. Particulars: compared to oil group. The procedure:
(§1) 24 C57B/L6 mice (age: four weeks) were separated into four groups (6 mice in each group). […]
After completing the measurement of the pulmonary function in Example 6, the mice were sacrificed. […] One of the two groups was preserved at −20° C. for the follow-up experiment, and the other group was analyzed by hematoxylin-sosin stain (H&E stain). […]

For a further experiment, the system named is TGF-β protein. The experiment can be described thus: TGF-β protein in mouse pulmonary tissue, western blotting. It is filed as in vivo, mice. Particulars: compared to oil group. The procedure:
as §1
The samples of mice pulmonary tissue provided by Example 7 and preserved at −20° C. were removed from storage, and then ground in liquid nitrogen. […] The expressions of TGF-β protein, smad3 protein and surfactant C in the samples of each group were measured with western blotting, wherein the actin served as an internal control.
For orientation: In western blotting, separated proteins are transferred to a membrane and probed.

Where [2] appears, read: High-dose group, compound (1) 50 mg/kg orally daily 30 days.
Where [3] appears, read: Low-dose group, compound (1) 10 mg/kg orally daily 30 days.

As for `CCCC=C1OC(=O)c2ccccc21` [compound (1)], the “Relative expression level (fold) Type I collagen” value in the experiment on type I collagen (Group I: TGF-β1 5 ng/ml 12 h, then compound (1) 15 μg/ml 24 h) was 0.79 fold; in the experiment on type I collagen (Group II: TGF-β1 5 ng/ml 12 h, then compound (1) 25 μg/ml 24 h) it was 0.30 fold; in the experiment with type I collagen (Group III: TGF-β1 5 ng/ml 12 h, then compound (1) 35 μg/ml 24 h), 0.51 fold. In addition, the pulmonary fibrosis score entry in experiment [1] (setting [2]) and in experiment [1] (setting [3]) was “significantly decreased” each time. The “expression level of TGF-β protein in pulmonary tissue” value with TGF-β protein (setting [2]) and in the experiment on TGF-β protein (setting [3]) was “significantly lower” each time.
